Source: ChEMBL document CHEMBL1201862, “PubChem BioAssay data set” (2004)
“And” between values parts separate entries of the source, which are not always exact repeats. Equal entries are not always repeated.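 Each compound was tested at five concentrations against cells in 96-well plates for 48 hours. GI50: concentration for 50% inhibition of growth.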 The source made the active and inactive calls. Cut-off read from the data, not from the text of the source: active = GI50 up to about 1.1 µM and inactive = higher.

What was measured:
Test in all cases: growth of human tumour cells (NCI), 48 h
[1] = tested on: NCI-H460
[2] = tested on: NCI/ADR-RES
[3] = tested on: A498
[4] = tested on: SNB-19
[5] = tested on: DU-145
[6] = tested on: MCF7
[7] = tested on: SF-268
[8] = tested on: A549
[9] = tested on: SR
[10] = tested on: SN12C
[11] = tested on: NCI-H226
[12] = tested on: LOX IMVI
[13] = tested on: Hs-578T
[14] = tested on: COLO 205
[15] = tested on: SK-MEL-28
[16] = tested on: HOP-62
[17] = tested on: OVCAR-3
[18] = tested on: UO-31
[19] = tested on: U-251
[20] = tested on: UACC-257

Compound | GI50 [1] | GI50 [2] | GI50 [3] | GI50 [4] | GI50 [5] | GI50 [6] | GI50 [7] | GI50 [8] | GI50 [9] | GI50 [10] | GI50 [11] | GI50 [12] | GI50 [13] | GI50 [14] | GI50 [15] | GI50 [16] | GI50 [17] | GI50 [18] | GI50 [19] | GI50 [20]
CC(N/N=C(\S)N1CCN(c2ccccn2)CC1)c1nccc2ccccc12 (stereo not given) | 0.593 µM (active) | < 0.0216 µM (active) | 5.71 µM (inactive) | 2.56 µM (inactive) | 1.32 µM (inactive) | 1.07 µM (active) | 0.514 µM (active) | 1.65 µM (inactive) | < 0.0218 µM (active) | 0.927 µM (active) | 1.83 µM (inactive) | 0.804 µM (active) | 12.9 µM (inactive) | 0.119 µM (active) | 2.61 µM (inactive) | 2.86 µM (inactive) | < 0.0121 µM (active) | 1.06 µM (active) | 0.385 µM (active) | 0.0318 µM (active)
CC(C)C(C)/C=C\C(C)C1CCC2C3=CC=C4CC(O)CCC4(C)C3CCC21C (stereo not given) | > 36.1 µM (inactive) | > 41.3 µM (inactive) | > 85.5 µM (inactive) | > 74.5 µM (inactive) | 51.6 µM (inactive) | 30.2 µM (inactive) | > 42.7 µM (inactive) | > 100 µM (inactive) | 34.4 µM (inactive) | > 42.1 µM (inactive) | > 38 µM (inactive) | > 42.7 µM (inactive) | > 41.3 µM (inactive) | 43.9 µM (inactive) | > 41.7 µM (inactive) | > 51.1 µM (inactive) | > 51.1 µM (inactive) | > 48.3 µM (inactive) | > 31.8 µM (inactive) | > 76.9 µM (inactive)
S=C(N/N=C(\c1ccccc1)c1ccccn1)NC1CCCCC1 | 3.36 µM (inactive) | 0.423 µM (active) | > 100 µM (inactive) | 39.7 µM (inactive) | 29.3 µM (inactive) | 0.433 µM (active) | 2.66 µM (inactive) | 13.9 µM (inactive) | > 26.1 µM (inactive) | 0.804 µM (active) | 3.85 µM (inactive) | 2.61 µM (inactive) | > 35 µM (inactive) | 0.543 µM (active) | 46.1 µM (inactive) | 12.2 µM (inactive) | 2.75 µM (inactive) | 12.9 µM (inactive) | 0.979 µM (active) | 2.24 µM (inactive)
CCCCCCCCCCCCCC(=O)OC(/C=C/C(C)C)C(O)C(O)C(OC)C(=O)NC1CCCCNC1=O (stereo not given) | 0.0906 µM (active) | > 10 µM (inactive) | 5.21 µM (inactive) | 0.815 µM (active) | > 10 µM (inactive) | 0.693 µM (active) | 1.52 µM (inactive) | 0.257 µM (active) | 0.097 µM (active) | 0.579 µM (active) | 2.39 µM (inactive) | 0.408 µM (active) | 9.79 µM (inactive) | 0.299 µM (active) | 1.61 µM (inactive) | 1.61 µM (inactive) | 1.81 µM (inactive) | 0.989 µM (active) | 0.673 µM (active) | 2.84 µM (inactive)
CCNC(=S)/N=c1\sc(NCC)nc2sc3c(c12)CCN(N1CCc2c(sc4nc(NCC)s/c(=N\C(=S)NCC)c24)C1)C3 | 76.6 µM (inactive) | > 100 µM (inactive) | 54 µM (inactive) | 74 µM (inactive) | 77.8 µM (inactive) | > 100 µM (inactive) | > 100 µM (inactive) | 82.4 µM (inactive) | 30.5 µM (inactive) | > 100 µM (inactive) | 24.9 µM (inactive) | 26 µM (inactive) | > 100 µM (inactive) | 57.4 µM (inactive) | 92 µM (inactive) | 57.3 µM (inactive) | > 100 µM (inactive) | > 100 µM (inactive) | 33.3 µM (inactive) | > 100 µM (inactive)
O=C(Cc1nccc2c1[nH]c1ccccc12)OC1C#CCSCC#C/C=C\1 (stereo not given) | > 100 µM (inactive) | > 100 µM (inactive) | 78.5 µM (inactive) | > 100 µM (inactive) | > 100 µM (inactive) | > 100 µM (inactive) | > 100 µM (inactive) | > 100 µM (inactive) | > 100 µM (inactive) | > 100 µM (inactive) | > 100 µM (inactive) | 57.9 µM (inactive) | > 100 µM (inactive) | 52.1 µM (inactive) | > 100 µM (inactive) | > 100 µM (inactive) | 95.9 µM (inactive) | 71.4 µM (inactive) | > 100 µM (inactive) | > 100 µM (inactive)
NCCOCC(N)C(=O)O (stereo not given) | > 100 µM (inactive) | > 100 µM (inactive) | > 100 µM (inactive) | > 100 µM (inactive) | > 100 µM (inactive) | > 100 µM (inactive) | > 100 µM (inactive) | > 100 µM (inactive) | > 100 µM (inactive) and 54.8 µM (inactive) | > 100 µM (inactive) | > 100 µM (inactive) | > 100 µM (inactive) and > 77.4 µM (inactive) | > 100 µM (inactive) | > 100 µM (inactive) | > 100 µM (inactive) | > 100 µM (inactive) | > 100 µM (inactive) | > 100 µM (inactive) | > 100 µM (inactive) | > 100 µM (inactive)
COc1cccc(N(CN2C(=O)CCC2OC)C(C)=O)c1 (stereo not given) | > 100 µM (inactive) | > 100 µM (inactive) | > 100 µM (inactive) | > 100 µM (inactive) | > 100 µM (inactive) | > 100 µM (inactive) | > 100 µM (inactive) | > 100 µM (inactive) | > 100 µM (inactive) | > 100 µM (inactive) | > 100 µM (inactive) | > 100 µM (inactive) | > 100 µM (inactive) | > 100 µM (inactive) | > 100 µM (inactive) | > 100 µM (inactive) | > 100 µM (inactive) | > 100 µM (inactive) | > 100 µM (inactive) | > 100 µM (inactive)
O=C(N1CCN(c2ccccc2)CC1)N(C(=O)C1(c2ccc(Cl)cc2)CCCC1)S(=O)(=O)c1ccccc1 | 30.5 µM (inactive) | 23.7 µM (inactive) | < 0.01 µM (active) | 28.1 µM (inactive) | 38.5 µM (inactive) | 26.9 µM (inactive) | 39.9 µM (inactive) | 36.2 µM (inactive) | 53.2 µM (inactive) | 28.3 µM (inactive) | 33.3 µM (inactive) | 21.3 µM (inactive) | 29.8 µM (inactive) | 24.7 µM (inactive) | 40.8 µM (inactive) | 29.1 µM (inactive) | 31.6 µM (inactive) | 32.8 µM (inactive) | 21.8 µM (inactive) | 28.3 µM (inactive)
CN(C)CC1=Nc2cccc3cccc(c23)N1 | 34.3 µM (inactive) | 33.7 µM (inactive) | 14.9 µM (inactive) | > 100 µM (inactive) | 17.1 µM (inactive) | 13.1 µM (inactive) | 18.9 µM (inactive) | 67.8 µM (inactive) | 17.9 µM (inactive) | 16.8 µM (inactive) | 20.3 µM (inactive) | 19.4 µM (inactive) | 34.7 µM (inactive) | 2.95 µM (inactive) | 22.1 µM (inactive) | > 100 µM (inactive) | 16.4 µM (inactive) | 9.16 µM (inactive) | 16.8 µM (inactive) | 16.9 µM (inactive)
CC(CCOc1ccc2ccc(=O)oc2c1)C1=CC(=O)C(C)(C)O1 (stereo not given) | 1.86 µM (inactive) | 2.12 µM (inactive) | 1.95 µM (inactive) | 3.09 µM (inactive) | 2.39 µM (inactive) | 3.61 µM (inactive) | 1.71 µM (inactive) | 2.87 µM (inactive) | 0.612 µM (active) | 1.67 µM (inactive) | 7.35 µM (inactive) | 2.23 µM (inactive) | 2.38 µM (inactive) | 2.42 µM (inactive) | 2.9 µM (inactive) | 5.12 µM (inactive) | 3.22 µM (inactive) | 3.05 µM (inactive) | 2.69 µM (inactive) | 6.73 µM (inactive)
Cc1ncc([N+](=O)[O-])n1CCNC(=O)CCCn1cnc([N+](=O)[O-])n1 | > 100 µM (inactive) | > 100 µM (inactive) | > 84.3 µM (inactive) | > 100 µM (inactive) | > 100 µM (inactive) | > 100 µM (inactive) | > 100 µM (inactive) | > 78.3 µM (inactive) | > 100 µM (inactive) | > 41.8 µM (inactive) | > 100 µM (inactive) | > 100 µM (inactive) | > 100 µM (inactive) | > 100 µM (inactive) | > 100 µM (inactive) | > 100 µM (inactive) | > 100 µM (inactive) | > 100 µM (inactive) | > 100 µM (inactive) | > 100 µM (inactive)
COc1ccc2nc3ccccc3c(NCCCCCN(CCCl)CCCl)c2c1 | < 0.01 µM (active) | 0.0399 µM (active) | 0.206 µM (active) | 0.0427 µM (active) | 0.192 µM (active) | < 0.01 µM (active) | 0.0383 µM (active) | < 0.0308 µM (active) | < 0.01 µM (active) | 0.0283 µM (active) | 0.101 µM (active) | 0.0294 µM (active) | 0.358 µM (active) | < 0.0301 µM (active) | 0.214 µM (active) | 0.0776 µM (active) | 0.0675 µM (active) | 0.0705 µM (active) | 0.0318 µM (active) | 1.03 µM (active)
